Laboratory results from patent US12377176B2, “Cancer diagnostic imaging agents” (Technische Universität München, priority 2019, dated 2025).
Several values for one entry are separate records, joined by “and”; a condition that tells them apart may be missing. Equal values may be shown once. Read-outs that look alike come from different tables or passages of the source. Values belong to the molecule of their own block, whether it stands above or below them.

Legend:
[1] = Wängler et al., Bioconjug Chem. 2010; cited from earlier work
HSA [2] = target: T1, HSA (Homo sapiens, UniProt P02768); test: HSA binding on Chiralpak HSA column; format: in vitro ADME; settings: for Log K HSA: logarithmic K of human serum albumin binding, calibration reference; for HSA Binding: Chiralpak HSA column (50 × 3 mm, 5 μm), (n = 6)
T1 construct: purchased H13H-2433
Experimental: The mobile phase (A: NH4OAc, 50 mM in water, pH 7 and B: isopropanol) was freshly prepared for each experiment and only used for one day. The column was kept at room temperature and each run was stopped after detection of the signal to reduce the acquisition time. All substances were dissolved in a 0.5 mg/ml concentration in 50% 2-propanol and 50% 50 mM pH 6.9 ammonium acetate buffer. […] All nine reference substances were injected consecutively to establish a non-linear regression with Origin Pro 2016G.

HSA [3] = target: T1, HSA; settings: literature value of human serum albumin binding (Yamazaki 2004); calibration reference; cited from earlier work
PSMA = target: T2, PSMA (Homo sapiens, UniProt Q04609); test: Determination of IC50: PSMA affinity, competition with ([125I]I-BA)KuE on LNCaP cells; format: binding
T2 construct: endogenous in cells; host or cells: LNCaP cells
Experimental: After removal of the culture medium, the cells were treated once with 500 μL of HBSS (Hank's balanced salt solution, Biochrom, Berlin, Germany, with addition of 1% bovine serum albumin (BSA)) and left 15 min on ice for equilibration in 200 μL HBSS (1% BSA). […] Quantification of bound and free radioligand was accomplished in a γ-counter.

LNCaP cells = test: Internalization into LNCaP cells, relative to ([125I]I-BA)KuE; format: cell-based; settings: for internalization rate Mean / individual internalization rates: LNCaP cells, 1 h, 37 °C, c=0.5 nM; for individual internalization rates: single measurements
Experimental: Data is corrected for non-specific binding ([…]) and expressed as mean±SD (n=3).
Subsequent to the removal of the culture medium, the cells were washed once with 500 μL DMEM-F12 (5% BSA) and left to equilibrate for at least 15 min at 37° C. in 200 μL DMEM-F12 (5% BSA). Each well was treated with either 25 μL of either DMEM-F12 (5% BSA) or a 100 μM PMPA solution for blockade. Next, 25 μL of the ^68Ga/^18F-labeled PSMA inhibitor (5.0 nM) was added and the cells incubated at 37° C. for 60 min. The experiment was terminated by placing the 24-well plate on ice for 3 min and consecutive removal of the medium. Each well was rinsed with 250 μL HBSS and the fractions from these first two steps combined, representing the amount of free radioligand. Removal of surface bound activity was accomplished by incubation of the cells with 250 μL of ice-cold PMPA (10 μM in PBS) solution for 5 min and rinsed again with another 250 μL of ice-cold PBS. The internalized activity was determined by incubation of the cells in 250 μL 1 M NaOH and the combination with the fraction of a subsequent wash step with 250 μL 1.0 M NaOH. Each experiment (control and bloackde) was performed in triplicate. Free, surface bound and internalized activity was quantified in a γ-counter. […] Data were corrected for non-specific internalization and normalized to the specific-internalization observed for the radioiodinated reference compound.

[4] = Octanol-water partition coefficient (n-octanol/PBS pH 7.4); format: physicochemical
Experimental: Approximately 1 MBq of the labeled tracer was dissolved in 1 mL of a 1:1 mixture (by volumes) of phosphate buffered saline (PBS, pH 7.4) and n-octanol in an Eppendorf tube. After vigorous mixing of the suspension for 3 minutes at room temperature, the vial was centrifuged at 15000 g for 3 minutes (Biofuge 15, Heraus Sepatech, Osterode, Germany) and 100 μL aliquots of both layers were measured in a gamma counter. The experiment was repeated at least six times.
Determianation of the logP values was carried out in phosphate buffered saline (PBS, pH 7.4) and n-octanol (=logPoct/PBS).

[5] = tested on: LNCaP tumor-bearing CB-17 SCID mice; settings: male, mouse, in vivo, 1 h
Experimental: To establish tumor xenografts, LNCaP cells (10^7 cells/200 μL) were suspended in a 1:1 mixture (v/v) of Dulbecco modified Eagle medium/Nutrition Mixture F-12 with Glutamax-I (1:1) and Matrigel (BD Biosciences, Germany), and inoculated subcutaneously onto the right shoulder of 6-8 weeks old CB17-SCID mice (Charles River, Sulzfeld, Germany). Mice were used for when tumors had grown to a diameter of 5-8 mm (3-4 weeks after inoculation).
Approximately 1-2 MBq (<0.2 nmol) of the ^18F-labeled PSMA inhibitor was injected into the tail vein of LNCaP tumor-bearing male CB-17 SCID mice and sacrificed after 1 h post injection (n=4-5). Selected organs were removed, weighted and measured in a γ-counter

[6] = LNCaP cells, [125I]IB-KuE 0.2 nM, 1 h, 4 °C, HBSS+1% BSA, single measurements, read-out: individual IC50 measurements
[7] = LNCaP cells, [125I]IB-KuE 0.2 nM, 1 h, 4 °C, mean of the individual measurements, read-out: IC50 Mean
[8] = mean ± SD as quoted in the discussion

T2 sequence (Q04609 whole entry): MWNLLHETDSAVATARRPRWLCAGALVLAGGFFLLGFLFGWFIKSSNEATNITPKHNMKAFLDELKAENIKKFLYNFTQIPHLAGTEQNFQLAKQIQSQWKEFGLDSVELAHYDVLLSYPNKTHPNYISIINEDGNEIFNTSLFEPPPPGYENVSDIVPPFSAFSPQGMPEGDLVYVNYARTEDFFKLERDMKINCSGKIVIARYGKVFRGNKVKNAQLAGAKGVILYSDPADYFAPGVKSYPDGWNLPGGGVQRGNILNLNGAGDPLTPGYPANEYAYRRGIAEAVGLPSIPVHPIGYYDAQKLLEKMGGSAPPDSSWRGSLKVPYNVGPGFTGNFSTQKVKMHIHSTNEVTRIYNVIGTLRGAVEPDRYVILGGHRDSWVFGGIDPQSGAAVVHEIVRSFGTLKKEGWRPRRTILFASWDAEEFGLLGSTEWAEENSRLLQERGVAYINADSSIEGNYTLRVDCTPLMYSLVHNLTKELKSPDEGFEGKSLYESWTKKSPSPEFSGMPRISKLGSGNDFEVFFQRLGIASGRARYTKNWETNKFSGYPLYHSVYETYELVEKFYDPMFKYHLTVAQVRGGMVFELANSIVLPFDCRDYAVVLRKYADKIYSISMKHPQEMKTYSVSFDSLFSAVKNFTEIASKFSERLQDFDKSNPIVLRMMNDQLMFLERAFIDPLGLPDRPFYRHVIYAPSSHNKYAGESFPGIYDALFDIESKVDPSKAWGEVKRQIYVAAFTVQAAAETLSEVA
T1 sequence (P02768 25-609): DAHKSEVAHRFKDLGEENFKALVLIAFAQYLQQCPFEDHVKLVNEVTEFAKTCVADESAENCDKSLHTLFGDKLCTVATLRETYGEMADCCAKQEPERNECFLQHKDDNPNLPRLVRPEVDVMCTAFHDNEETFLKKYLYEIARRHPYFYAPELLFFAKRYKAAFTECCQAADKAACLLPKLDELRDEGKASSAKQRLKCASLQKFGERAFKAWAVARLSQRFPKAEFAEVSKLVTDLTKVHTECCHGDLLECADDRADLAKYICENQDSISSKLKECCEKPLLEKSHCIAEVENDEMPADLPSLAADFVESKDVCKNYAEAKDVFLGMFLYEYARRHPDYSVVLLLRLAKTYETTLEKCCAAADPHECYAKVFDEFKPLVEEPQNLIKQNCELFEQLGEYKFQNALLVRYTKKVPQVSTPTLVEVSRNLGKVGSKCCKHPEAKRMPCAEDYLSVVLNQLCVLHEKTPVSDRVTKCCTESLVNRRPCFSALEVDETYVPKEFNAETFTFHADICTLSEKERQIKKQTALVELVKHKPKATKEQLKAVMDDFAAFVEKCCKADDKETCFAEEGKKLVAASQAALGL

Molecule: SIFA-Asn(AcNH-β-Glc)-Tyr^3-octreotate
log P(ow) [1]: 1.23

Molecule: SIFA-Asn(AcNH-β-Glc)-PEG-Tyr^3-octreotate
log P(ow) [1]: 0.96

Log K HSA (HSA [2]): 1.69
Molecule: COc1ccc(Cl)cc1C(=O)NCCc1ccc(S(=O)(=O)NC(=O)NC2CCCCC2)cc1 [Glibenclamide]
Lit. HSA % (HSA [3]): 99.00%

Molecule: CCCN(CCC)S(=O)(=O)c1ccc(C(=O)O)cc1 [Probenecid]
Lit. HSA % (HSA [3]): 95.00%

Molecule: Oc1ccccc1 [Phenol]
Log K HSA (HSA [2]): −0.59
Lit. HSA % (HSA [3]): 20.69%

Molecule: PSMA-1007 [reference compound]
IC50 (PSMA; other selected PSMA inhibitors, own lab, identical binding assay (Robu et al. 2018), read-out: IC50): 4.2 ± 0.5 nM
internalization (LNCaP cells; other selected PSMA inhibitors, own lab, identical assay (Robu et al. 2018)): 118 ± 4 % of [^125I]IB-KuE
log P ([4]; octanol/PBS7.4, (n = 6)): −1.6
HSA Binding (HSA [2]): 97.8%

Molecule: O=C(O)c1ccccc1 [Benzoic Acid]
Lit. HSA % (HSA [3]): 34.27%

Molecule: CC(C)(C)[Si](F)(c1ccc(C(=O)NC[C@H](NC(=O)CC[C@H](C(=O)O)N2CCN(CC(=O)O)CCN(CC(=O)O)CCN(CC(=O)O)CC2)C(=O)N[C@H](CCCCNC(=O)CCC(=O)NCCC[C@@H](NC(=O)CC[C@H](NC(=O)N[C@@H](CCC(=O)O)C(=O)O)C(=O)O)C(=O)O)C(=O)O)cc1)C(C)(C)C [rhPSMA7.2, [^19F][^natGa]L-Dap-R-DOTAGA-rhPSMA7, metal not drawn]
IC50 (PSMA; [6]): 2.64 nM and 2.76 nM and 3.94 nM and 5.8 nM and 4.31 nM and 4.32 nM and 3.17 nM and 2.97 nM and 3.36 nM
IC50 (PSMA; [7]): 3.7 nM
internalization rate Mean (LNCaP cells): 191.83 % of [^125I]IB-KuE
individual internalization rates (LNCaP cells): 192.3 % of [^125I]IB-KuE and 188.7 % of [^125I]IB-KuE and 182.7 % of [^125I]IB-KuE and 169.5 % of [^125I]IB-KuE and 205.3 % of [^125I]IB-KuE and 212.6 % of [^125I]IB-KuE
internalization (LNCaP cells; [8]): 191.83%±15.54
individual log P measurements ([4]; octanol/PBS7.4, single measurements): −3.00 and −3.02 and −3.06 and −3.45
logP ([4]; pH 7.4, log P): -3.13 ± 0.22
logP ([4]; pH 7.4, log P Mean): -3.13
HSA Binding (HSA [2]): 97.8%
Biodistribution adrenals [5]: 1.3 ± 0.8 % ID/g
Biodistribution blood [5]: 0.56 ± 0.20 % ID/g
Biodistribution bone [5]: 0.31 ± 0.24 % ID/g
Biodistribution heart [5]: 0.32 ± 0.13 % ID/g
Biodistribution intestine [5]: 0.18 ± 0.07 % ID/g
Biodistribution kidneys [5]: 87.6 ± 28.8 % ID/g
Biodistribution liver [5]: 0.35 ± 0.08 % ID/g
Biodistribution lung [5]: 0.89 ± 0.38 % ID/g
Biodistribution muscle [5]: 0.13 ± 0.07 % ID/g
Biodistribution pancreas [5]: 0.21 ± 0.08 % ID/g
Biodistribution spleen [5]: 10.1 ± 6.3 % ID/g
Biodistribution stomach [5]: 0.19 ± 0.08 % ID/g
Biodistribution tumor [5]: 6.5 ± 2.3 % ID/g

Molecule: O=[N+]([O-])c1ccc(O)cc1 [p-nitrophenol]
Lit. HSA % (HSA [3]): 77.65%

Molecule: Nc1ccccc1 [Aniline]
Log K HSA (HSA [2]): −0.79
Lit. HSA % (HSA [3]): 14.06%

Molecule: CC(C)(C)[Si](F)(c1ccc(C(=O)NC[C@@H](NC(=O)CC[C@H](C(=O)O)N2CCN(CC(=O)O)CCN(CC(=O)O)CCN(CC(=O)O)CC2)C(=O)N[C@H](CCCCNC(=O)CCC(=O)NCCC[C@@H](NC(=O)CC[C@H](NC(=O)N[C@@H](CCC(=O)O)C(=O)O)C(=O)O)C(=O)O)C(=O)O)cc1)C(C)(C)C [rhPSMA7.1, [^19F][^natGa]D-Dap-R-DOTAGA-rhPSMA7, metal not drawn]
IC50 (PSMA; [6]): 5.04 nM and 7.11 nM and 8.31 nM and 4.97 nM and 6.44 nM and 8.74 nM and 6.91 nM and 7.27 nM
IC50 (PSMA; [7]): 6.85 nM
internalization rate Mean (LNCaP cells): 69.55 % of [^125I]IB-KuE
individual internalization rates (LNCaP cells): 77.5 % of [^125I]IB-KuE and 61.8 % of [^125I]IB-KuE and 70.6 % of [^125I]IB-KuE and 68.0 % of [^125I]IB-KuE and 67.9 % of [^125I]IB-KuE and 71.5 % of [^125I]IB-KuE
internalization (LNCaP cells; [8]): 69.55%±5.29
HSA Binding (HSA [2]): 97.7%
Biodistribution adrenals [5]: 2.0 ± 0.25 % ID/g
Biodistribution blood [5]: 0.53 ± 0.13 % ID/g
Biodistribution bone [5]: 0.50 ± 0.31 % ID/g
Biodistribution heart [5]: 0.53 ± 0.03 % ID/g
Biodistribution intestine [5]: 0.30 ± 0.16 % ID/g
Biodistribution kidneys [5]: 220 ± 24.8 % ID/g
Biodistribution liver [5]: 0.75 ± 0.62 % ID/g
Biodistribution lung [5]: 1.1 ± 0.21 % ID/g
Biodistribution muscle [5]: 0.32 ± 0.30 % ID/g
Biodistribution pancreas [5]: 0.45 ± 0.12 % ID/g
Biodistribution spleen [5]: 20.0 ± 4.2 % ID/g
Biodistribution stomach [5]: 0.28 ± 0.17 % ID/g
Biodistribution tumor [5]: 14.1 ± 4.1 % ID/g

HSA Binding (HSA [2]): 14.3%
Molecule: O=C(O)CC[C@H](NC(=O)N[C@@H](CCCCNC(=O)c1ccc(F)nc1)C(=O)O)C(=O)O [DCFPyL]

Molecule: CC(C)(C)[Si](F)(c1ccc(C(=O)NC[C@H](NC(=O)CC[C@@H](C(=O)O)N2CCN(CC(=O)O)CCN(CC(=O)O)CCN(CC(=O)O)CC2)C(=O)N[C@H](CCCCNC(=O)CCC(=O)NCCC[C@@H](NC(=O)CC[C@H](NC(=O)N[C@@H](CCC(=O)O)C(=O)O)C(=O)O)C(=O)O)C(=O)O)cc1)C(C)(C)C [rhPSMA7.4, [^19F][^natGa]L-Dap-S-DOTAGA-rhPSMA7, metal not drawn]
IC50 (PSMA; [6]): 3.4 nM and 3.56 nM and 2.79 nM and 4.57 nM and 3.78 nM
IC50 (PSMA; [7]): 3.62 nM
internalization rate Mean (LNCaP cells): 207.33 % of [^125I]IB-KuE
individual internalization rates (LNCaP cells): 209.6 % of [^125I]IB-KuE and 202.6 % of [^125I]IB-KuE and 209.8 % of [^125I]IB-KuE
internalization (LNCaP cells; [8]): 207.33±4.06%
HSA Binding (HSA [2]): 96.6%
Biodistribution adrenals [5]: 3.57 ± 2.38 % ID/g
Biodistribution blood [5]: 1.15 ± 0.30 % ID/g
Biodistribution bone [5]: 0.62 ± 0.30 % ID/g
Biodistribution heart [5]: 0.71 ± 0.26 % ID/g
Biodistribution intestine [5]: 0.37 ± 0.09 % ID/g
Biodistribution kidneys [5]: 153 ± 80.3 % ID/g
Biodistribution liver [5]: 0.69 ± 0.20 % ID/g
Biodistribution lung [5]: 1.59 ± 0.61 % ID/g
Biodistribution muscle [5]: 0.31 ± 0.08 % ID/g
Biodistribution pancreas [5]: 0.50 ± 0.30 % ID/g
Biodistribution spleen [5]: 18.4 ± 9.77 % ID/g
Biodistribution stomach [5]: 0.25 ± 0.06 % ID/g
Biodistribution tumor [5]: 18.9 ± 3.27 % ID/g
